Data taken from ChEMBL document CHEMBL1938245, “aza-Flavanones as potent cross-species microRNA inhibitors that arrest cell cycle” (Bioorg Med Chem Lett, 2012).
Activity calls are given as the source filed them. The calls are words filed in the database; no cut-off is given here.

Experiments:
[1] = system: Nucleic Acid; assay: Inhibition of miR-4644 in human MCF7 cells assessed as reduction in luminescence at 4 uM after 24 hrs by luciferase reporter gene assay relative to control; format: cell-based
[2] = system: Nucleic Acid; assay: Inhibition of miR-4644 in human HeLa cells assessed as reduction in luminescence at 4 uM after 24 hrs by luciferase reporter gene assay relative to control; format: cell-based
[3] = system: Nucleic Acid; assay: Inhibition of miR-4644 in human MCF7 cells assessed as increase in luminescence at 4 uM after 24 hrs by luciferase reporter gene assay relative to control; format: cell-based
[4] = system: Nucleic Acid; assay: Inhibition of miR-4644 in human HeLa cells assessed as increase in luminescence at 4 uM after 24 hrs by luciferase reporter gene assay relative to control; format: cell-based
[5] = system: MCF7; assay: Cell cycle arrest in human MCF7 cells assessed as accumulation at G0/G1 phase at 4 uM after 24 hrs using propidium iodide staining by flow cytometry (reference value: 79%); format: functional
[6] = system: MCF7; assay: Cell cycle arrest in human MCF7 cells assessed as accumulation at S phase at 4 uM after 24 hrs using propidium iodide staining by flow cytometry (reference value: 9%); format: functional
[7] = system: MCF7; assay: Cell cycle arrest in human MCF7 cells assessed as accumulation at G2/M phase at 4 uM after 24 hrs using propidium iodide staining by flow cytometry (reference value: 11%); format: functional
[8] = Cytotoxicity against HEK cells; format: cell-based; conditions: human, hek293
[9] = system: MCF-10A; assay: Cytotoxicity against human MCF10A cells; format: cell-based
[10] = system: MCF7; assay: Ratio of IC50 for HEK cells to IC50 for human MCF7 cells
[11] = system: MCF7; assay: Ratio of IC50 for human MCF10A cells to IC50 for human MCF7 cells
[12] = system: Nucleic Acid; assay: Inhibition of miR14 in Drosophila melanogaster S2 cells at 4 uM after 24 hrs by luciferase reporter gene assay; format: cell-based
[13] = system: Nucleic Acid; assay: Inhibition of Pri-miR-4644 expression in human HeLa cells at 4 uM after 10 mins by qRT-PCR analysis; format: cell-based
[14] = system: Nucleic Acid; assay: Inhibition of mature-miR-4644 expression in human HeLa cells at 4 uM after 10 mins by qRT-PCR analysis; format: cell-based
[15] = system: Nucleic Acid; assay: Inhibition of pri-miR-4644 expression in human MCF7 cells at 4 uM after 10 mins by qRT-PCR analysis; format: cell-based
[16] = system: Nucleic Acid; assay: Inhibition of mature-miR-4644 expression in human MCF7 cells at 4 uM after 10 mins by qRT-PCR analysis; format: cell-based
[17] = system: Nucleic Acid; assay: Inhibition of miR-30A in human HeLa cells assessed as increase in luminescence at 4 uM after 24 hrs by luciferase reporter gene assay relative to control; format: cell-based
[18] = system: Drosophila; assay: Inhibition of miR-14 in transgenic Drosophila larvae assessed as increase in fluorescence in wing disc at 50 uM, po by EGFP reporter gene assay using confocal microscopy relative to control; format: functional, organism-based
[19] = system: Drosophila; assay: Inhibition of miR-14 in transgenic Drosophila larvae expressing EGFP assessed as increase in EGFP protein expression in wing disc at 50 uM, po by Western blot analysis relative to control; format: functional, organism-based
[20] = system: Drosophila; assay: Down regulation of miR-14 in Drosophila larvae at 50 uM, po by qRT-PCR analysis relative to control; format: functional
[21] = system: Drosophila; assay: Down regulation of pri-miR-14 in Drosophila larvae at 50 uM, po by qRT-PCR analysis relative to control; format: functional, organism-based
[22] = system: Drosophila; assay: Down regulation of mature-miR-14 in Drosophila larvae at 50 uM, po by qRT-PCR analysis relative to control; format: functional, organism-based
[23] = system: Drosophila; assay: Down regulation of miR-3 in Drosophila larvae at 50 uM, po by qRT-PCR analysis relative to control; format: functional, organism-based

Cc1cc(C)c(C2CC(=O)c3ccccc3N2)c(C)c1 (stereo unspecified)
inhibition [1]: 21%
inhibition [2]: 56%

O=C1CC(c2ccccc2)Nc2ccccc21 (stereo unspecified)
inhibition [3]: inactive
inhibition [4]: inactive

O=C1CC(c2ccc(Br)cc2)Nc2ccccc21 (stereo unspecified)
Activity [5]: 83%
Activity [6]: 9%
Activity [7]: 7%
Activity [8]: Non-toxic
Activity [9]: Non-toxic
Ratio IC50 [10]: 2
Ratio IC50 [11]: 3
inhibition [12]: Active
fold change (FC) [3]: 3
fold change (FC) [4]: 3
inhibition [13]: 20%
inhibition [14]: 20%
inhibition [15]: 20%
inhibition [16]: 20%
inhibition [17]: inactive
inhibition [18]: Active
inhibition [19]: Active
fold change (FC) [20]: 5
Activity [21]: Active
Activity [22]: Active
Activity [23]: inactive

O=C1CC(c2ccc(-c3ccoc3)cc2)Nc2ccccc21 (stereo unspecified)
inhibition [1]: 21%
inhibition [2]: 56%

CC(=O)Oc1ccc(C2CC(=O)c3ccccc3N2)c(OC(C)=O)c1 (stereo unspecified)
inhibition [1]: 21%
inhibition [2]: 56%

Cc1ccc(S(=O)(=O)Oc2ccc(C3CC(=O)c4ccccc4N3)c(OS(=O)(=O)c3ccc(C)cc3)c2)cc1 (stereo unspecified)
inhibition [1]: 21%
inhibition [2]: 56%

O=C1CC(c2ccc(O)cc2O)Nc2ccccc21 (stereo unspecified)
Activity [5]: 85%
Activity [6]: 8%
Activity [7]: 7%
Activity [8]: Non-toxic
Activity [9]: Non-toxic
Ratio IC50 [10]: 2
Ratio IC50 [11]: 3
inhibition [12]: Active
fold change (FC) [3]: 3
fold change (FC) [4]: 3
inhibition [13]: 20%
inhibition [14]: 20%
inhibition [15]: 20%
inhibition [16]: 20%
inhibition [17]: inactive
inhibition [18]: Active
inhibition [19]: Active
fold change (FC) [20]: 5
Activity [21]: Active
Activity [22]: Active
Activity [23]: inactive

COc1ccc(C2CC(=O)c3ccccc3N2)cc1 (stereo unspecified)
inhibition [3]: inactive
inhibition [4]: inactive

O=C1CC(c2c[nH]c3ccccc23)Nc2ccccc21 (stereo unspecified)
inhibition [1]: 21%
inhibition [2]: 56%
